± gives the standard deviation of the averaged measurements.
Tests used:
[1] = system: HL-60; test: cell viability (% survival relative to DMSO control); higher = less cytotoxic; conditions: 72 h
How it was run: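 HL-60 cells in RPMI 1640 with 10% FBS were rescreened against the full library on 384-well plates at five tenfold concentrations, 1–10,000 nM, in duplicate. Each screen was run with DMSO or 100 nM of one of three metabolic inhibitors, for 72 h at 37 °C, 5% CO2. Viability was read by CellTiter-Glo and normalised to DMSO and 10 μM proteasome-inhibitor wells. Where given, area under the curve came from four-parameter log-logistic fits (drc, PharmacoGx).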

[2] = system: MV4-11; test: cell viability (% survival relative to DMSO control, bortezomib = 0%); higher = less cytotoxic; conditions: 72 h
How it was run: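 Fifteen myeloid leukaemia cell lines (10 AML, 5 CML) were seeded at a density titrated to the linear growth range. They went into 384-well plates with compounds pre-printed at 1, 10, 100, 1000 or 10000 nM in duplicate. After 72 h at 37 °C with 5% CO2, viability was read by CellTiter-Glo luminescence. Values are percent survival, with vehicle set to 100% and a 10 µM positive control to 0%, averaged over the duplicates.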

[3] = 0.001 µM, co-treatment: AZD3965 100 nM
[4] = 0.001 µM, co-treatment: DMSO vehicle
[5] = 0.001 µM, co-treatment: GSK2194069 100 nM
[6] = 0.001 µM, co-treatment: pictilisib 100 nM
[7] = 0.01 µM, co-treatment: AZD3965 100 nM
[8] = 0.01 µM, co-treatment: DMSO vehicle
[9] = 0.01 µM, co-treatment: GSK2194069 100 nM
[10] = 0.01 µM, co-treatment: pictilisib 100 nM
[11] = 0.1 µM, co-treatment: AZD3965 100 nM
[12] = 0.1 µM, co-treatment: DMSO vehicle
[13] = 0.1 µM, co-treatment: GSK2194069 100 nM
[14] = 0.1 µM, co-treatment: pictilisib 100 nM
[15] = 1 µM, co-treatment: AZD3965 100 nM
[16] = 1 µM, co-treatment: DMSO vehicle
[17] = 1 µM, co-treatment: GSK2194069 100 nM
[18] = 1 µM, co-treatment: pictilisib 100 nM
[19] = 10 µM, co-treatment: AZD3965 100 nM
[20] = 10 µM, co-treatment: DMSO vehicle
[21] = 10 µM, co-treatment: GSK2194069 100 nM
[22] = 10 µM, co-treatment: pictilisib 100 nM

`CC1(C)[C@@H](O[C@H]2O[C@H](C(=O)O)[C@@H](O)[C@H](O)[C@H]2O[C@@H]2O[C@H](C(=O)O)[C@@H](O)[C@H](O)[C@H]2O)CC[C@]2(C)[C@H]3C(=O)C=C4[C@@H]5C[C@@](C)(C(=O)O)CC[C@]5(C)CC[C@@]4(C)[C@]3(C)CC[C@@H]12` [Glycyrrhizin] gave a cell viability [1, 3] of 103 ± 1.1%, a cell viability [1, 4] of 102 ± 4.5% and a cell viability [1, 5] of 102 ± 6.3%. It also gave a cell viability [1, 6] of 94 ± 8.3%, a cell viability [1, 7] of 102 ± 6.2% and a cell viability [1, 8] of 103 ± 1.6%. For the same molecule, the cell viability [1, 9] was 100 ± 5.3%, the cell viability [1, 10] was 99.5 ± 4.6% and the cell viability [1, 11] was 102 ± 4%. For the same molecule, the cell viability [1, 12] was 95.5 ± 2.6%, the cell viability [1, 13] was 105 ± 10% and the cell viability [1, 14] was 99.1 ± 9.6%. For the same molecule, the cell viability [1, 15] was 102.6 ± 0.12%, the cell viability [1, 16] was 98.7 ± 3% and the cell viability [1, 17] was 110.4 ± 0.55%. It also gave a cell viability [1, 18] of 97.7 ± 1.7%, a cell viability [1, 19] of 105 ± 3.8% and a cell viability [1, 20] of 101 ± 3%. For the same molecule, the cell viability [1, 21] was 104 ± 3.1%, the cell viability [1, 22] was 103 ± 2.7% and the cell viability ([2]; 1 nM) was 89%. The cell viability ([2]; 10 nM) was 108%, the cell viability ([2]; 100 nM) was 108% and the cell viability ([2]; 1000 nM) was 85.3%. The cell viability ([2]; 10000 nM) was 102%.

`Nc1ccccc1C(=O)C[C@H](N)C(=O)O` [L-Kynurenine] gave a cell viability [1, 3] of 93.4 ± 7.9%, a cell viability [1, 4] of 92.2 ± 2.7% and a cell viability [1, 5] of 96.6 ± 7.5%. It also gave a cell viability [1, 6] of 88.1 ± 2.1%, a cell viability [1, 7] of 77.9 ± 30% and a cell viability [1, 8] of 96.4 ± 5%. The cell viability [1, 9] was 94.9 ± 2.8%, the cell viability [1, 10] was 95.5 ± 3.9% and the cell viability [1, 11] was 104 ± 9.4%. The cell viability [1, 12] was 100.5 ± 0.45%, the cell viability [1, 13] was 101 ± 1.3% and the cell viability [1, 14] was 103 ± 0.92%. The cell viability [1, 15] was 99.66 ± 0.67%, the cell viability [1, 16] was 99 ± 3.1% and the cell viability [1, 17] was 98.86 ± 0.35%. The cell viability [1, 18] was 94.5 ± 6.2%, the cell viability [1, 19] was 104 ± 2.6% and the cell viability [1, 20] was 106.8 ± 0.64%. It also gave a cell viability [1, 21] of 100 ± 3.5%, a cell viability [1, 22] of 105 ± 5.5% and a cell viability ([2]; 1 nM) of 108%. For the same molecule, the cell viability ([2]; 10 nM) was 103%, the cell viability ([2]; 100 nM) was 93.1% and the cell viability ([2]; 1000 nM) was 101%. It also gave a cell viability ([2]; 10000 nM) of 89.4%.

In the case of `N/C(=N\CCCC(N)C(=O)O)N[N+](=O)[O-]` [L-NNA], the cell viability [1, 3] is reported as 104 ± 2.6%, the cell viability [1, 4] is reported as 102.6 ± 0.88% and the cell viability [1, 5] is reported as 102 ± 4.6%. It also gave a cell viability [1, 6] of 97.6 ± 1.3%, a cell viability [1, 7] of 105 ± 4.7% and a cell viability [1, 8] of 99.86 ± 0.89%. It also gave a cell viability [1, 9] of 99.1 ± 1.9%, a cell viability [1, 10] of 95.8 ± 8.7% and a cell viability [1, 11] of 106 ± 8.5%. The cell viability [1, 12] was 105 ± 1.6%, the cell viability [1, 13] was 90.4 ± 40% and the cell viability [1, 14] was 102 ± 14%. The cell viability [1, 15] was 98.7 ± 2.9%, the cell viability [1, 16] was 99.1 ± 3.6% and the cell viability [1, 17] was 99.9 ± 4%. The cell viability [1, 18] was 96.12 ± 0.83%, the cell viability [1, 19] was 101.2 ± 0.57% and the cell viability [1, 20] was 102 ± 7%. It also gave a cell viability [1, 21] of 101 ± 2.3%, a cell viability [1, 22] of 100 ± 14% and a cell viability ([2]; 1 nM) of 96.4%. It also gave a cell viability ([2]; 10 nM) of 103%, a cell viability ([2]; 100 nM) of 106% and a cell viability ([2]; 1000 nM) of 103%. For the same molecule, the cell viability ([2]; 10000 nM) was 107%.

`CC[C@H](C)C(=O)O[C@H]1C[C@@H](C)C=C2C=C[C@H](C)[C@H](CC[C@@H]3C[C@@H](O)CC(=O)O3)[C@H]21` [Lovastatin] showed a cell viability [1, 3] of 92.4 ± 13%, a cell viability [1, 4] of 96.8 ± 1.3% and a cell viability [1, 5] of 104 ± 5.5%. The cell viability [1, 6] was 98.2 ± 4.6%, the cell viability [1, 7] was 104.3 ± 0.46% and the cell viability [1, 8] was 102 ± 4.3%. For the same molecule, the cell viability [1, 9] was 107 ± 2.7%, the cell viability [1, 10] was 105 ± 0.52% and the cell viability [1, 11] was 101 ± 8.2%. For the same molecule, the cell viability [1, 12] was 101 ± 4.2%, the cell viability [1, 13] was 104 ± 4.1% and the cell viability [1, 14] was 98.1 ± 9.3%. The cell viability [1, 15] was 98.2 ± 4.4%, the cell viability [1, 16] was 96.5 ± 3.8% and the cell viability [1, 17] was 102 ± 1.6%. For the same molecule, the cell viability [1, 18] was 94.1 ± 12%, the cell viability [1, 19] was 94.1 ± 4.6% and the cell viability [1, 20] was 95.5 ± 2.6%. It also gave a cell viability [1, 21] of 98.48 ± 0.87%, a cell viability [1, 22] of 75.54 ± 0.27% and a cell viability ([2]; 1 nM) of 97.6%. It also gave a cell viability ([2]; 10 nM) of 97.3%, a cell viability ([2]; 100 nM) of 106% and a cell viability ([2]; 1000 nM) of 93.5%. The cell viability ([2]; 10000 nM) was 93.2%.

`C[C@](N)(Cc1ccc(O)cc1)C(=O)O` [Metirosine] gave a cell viability [1, 3] of 101 ± 4.8%, a cell viability [1, 4] of 108 ± 5.7% and a cell viability [1, 5] of 105 ± 6%. The cell viability [1, 6] was 116 ± 5.2%, the cell viability [1, 7] was 101.8 ± 0.89% and the cell viability [1, 8] was 104 ± 3%. The cell viability [1, 9] was 104 ± 11%, the cell viability [1, 10] was 105 ± 17% and the cell viability [1, 11] was 99 ± 11%. It also gave a cell viability [1, 12] of 101 ± 4.5%, a cell viability [1, 13] of 98.9 ± 4% and a cell viability [1, 14] of 98.9 ± 5.9%. The cell viability [1, 15] was 95.8 ± 6.8%, the cell viability [1, 16] was 101 ± 5.1% and the cell viability [1, 17] was 93.8 ± 14%. It also gave a cell viability [1, 18] of 81.1 ± 8.7%, a cell viability [1, 19] of 97.76 ± 0.91% and a cell viability [1, 20] of 103 ± 1.1%. It also gave a cell viability [1, 21] of 99.6 ± 1%, a cell viability [1, 22] of 105 ± 10% and a cell viability ([2]; 1 nM) of 107%. It also gave a cell viability ([2]; 10 nM) of 87.3%, a cell viability ([2]; 100 nM) of 92.3% and a cell viability ([2]; 1000 nM) of 107%. For the same molecule, the cell viability ([2]; 10000 nM) was 101%.
